Assay results reported in US20110182909A1, “Glufosfamide combination therapy” (priority 2004, published 2011).
Where two headings read alike, the source gives them in different places.

Legend:
[1] = mesna given concomitantly with ifosfamide; cited from earlier work
[2] = system: Ramos cells (Burkitt's lymphoma); assay: Alamar Blue cell proliferation assay (3 days); assay type: cell-based; details: for IC50: single agent; for Cell proliferation as % control: 3 days
Experimental: Ramos cells lines (Burkitt's lymphoma) were obtained from the American Type Culture Collection (ATCC, Rockville, Md.). All cell lines were cultured in Dulbecco's modified Eagle's medium supplemented with 10% fetal calf serum, sodium pyruvate, nonessential amino acids, L-glutamine, vitamins, and antibiotics. Cells were maintained in a humidified incubator containing 5% CO2, 21% O2, at 37° C. All chemical reagents were purchased from Sigma Chemical Co. (St. Louis, Mo.) unless otherwise specified. Glufosfamide was provided directly by Threshold Pharmaceuticals and reconstituted in PBS freshly for each study.
To determine the effect of the combinations of the present invention on cell proliferation, the antiproliferative activity of these combinations was tested in a multi-well Alamar Blue based assay (at 3 days). Cell growth in the presence and absence of the test compound as tabulated in Table 1 was compared, as measured by a fluorescence plate reader at excitation 550 nm and emission 590 nm (see Biosource International Inc., Tech Application Notes, Use of Alainar Blue in the measurement of Cell Viability and Toxicity, Determining IC50). Ramos cells (Burkitt's lymphoma) (ATCC Catalog #CRL-1596), 3000 cells/well/180 μl) were seeded in a 96 well plate in RPMI medium (Invitrogen Corporation, Carlsbad, Calif.) and incubated overnight. After 24 hours, these plates were divided into Control group and 3 day treatment group.
A test compound (Glufosfamide, Carboplatin, or Etoposide) was added to each plate in the treatment groups at a concentration as tabulated in Tables 1A-1D (in 200 μl of medium, respectively). The cells were incubated for 3 days, followed by staining with AlamarBlue. In the Control group, AlamarBlue was added to the plate at (i) day 0 and (ii) day 3 and measured to establish the control reading. In all the groups, the capacity of the cells to proliferate was measured 17 hours after addition of AlamarBlue using a fluorescence plate reader at excitation 550 nm and emission 590 nm. […] Dose dependent percent inhibition was calculated using Graphpad Prism® (GraphPad Software, Inc.). These values were then applied against the Combination Index (CI) method as described by Chou and Talalay (Chou, T. C. and Talalay, P., Quantitative analysis of dose-effect relationships: The combined effects of multiple drugs or enzyme inhibitors. Adv. Enz. Regul. 22:27-55, 1984) using CalcuSyn software (Biosoft).
The effect of the combinations of the present invention on cell proliferation was determined by comparing cell growth in the presence and absence of the test combinations as tabulated in the tables below according to the procedure described above.

[3] = in contrast to ifosfamide; cited from earlier work

Compound: O=S(=O)(O)CCS [mesna, mercaptoethane sulfonate sodium]
- patients who do not respond to mesna and develop hematuria [1]: up to 6%

Compound: O=P(NCCCl)(NCCCl)OC1OC(CO)C(O)C(O)C1O [Glufosfamide, α-D-glucosyl-ifosfamide mustard]
- IC50 ([2]; Homo sapiens, 72 h, Table 1B, 3 days (from Table 1A)): 180 µM
- IC50 ([2]; Homo sapiens, 72 h, Table 1D, 3 days (from Table 1C)): 120 µM
- Cell proliferation as % control ([2]; Table 1A, Glufosfamide 0.7 μM): 91 % control
- Cell proliferation as % control ([2]; Table 1A, Glufosfamide 2 μM): 92 % control
- Cell proliferation as % control ([2]; Table 1A, Glufosfamide 6 μM): 94 % control
- Cell proliferation as % control ([2]; Table 1A, Glufosfamide 19 μM): 81 % control
- Cell proliferation as % control ([2]; Table 1A, Glufosfamide 56 μM): 65 % control
- Cell proliferation as % control ([2]; Table 1A, Glufosfamide 167 μM): 65 % control
- Cell proliferation as % control ([2]; Table 1A, Glufosfamide 500 μM): 0 % control
- Cell proliferation as % control ([2]; Table 1C, Glufosfamide 9 μM): 91 % control
- Cell proliferation as % control ([2]; Table 1C, Glufosfamide 19 μM): 79 % control
- Cell proliferation as % control ([2]; Table 1C, Glufosfamide 37.5 μM): 70 % control
- Cell proliferation as % control ([2]; Table 1C, Glufosfamide 75 μM): 64 % control
- Cell proliferation as % control ([2]; Table 1C, Glufosfamide 150 μM): 54 % control
- Cell proliferation as % control ([2]; Table 1C, Glufosfamide 300 μM): 11 % control
- Cell proliferation as % control ([2]; Table 1C, Glufosfamide 600 μM): 0 % control
- production of chloroacetaldehyde [3]: produces less chloroacetaldehyde
- release of the toxic metabolite acrolein [3]: does not release the toxic metabolite acrolein

Compound: N.N.O=C([O-])C1(C(=O)[O-])CCC1.[Pt+2] [Carboplatin]
- Cell proliferation as % control ([2]; Table 1A, Carboplatin 0.4 μM): 97 % control
- Cell proliferation as % control ([2]; Table 1A, Carboplatin 3.7 μM): 94 % control
- Cell proliferation as % control ([2]; Table 1A, Carboplatin 11 μM): 68 % control
- Cell proliferation as % control ([2]; Table 1A, Carboplatin 33 μM): 46 % control
- Cell proliferation as % control ([2]; Table 1A, Carboplatin 100 μM): 0 % control
- Cell proliferation as % control ([2]; Table 1A, Carboplatin 300 μM): 0 % control
- IC50 ([2]; Table 1B, 3 days (from Table 1A), read-out: IC50): 25 µM
- Cell proliferation as % control ([2]; Table 1C, Carboplatin 0.4 μM): 98 % control
- Cell proliferation as % control ([2]; Table 1C, Carboplatin 3.7 μM): 89 % control
- Cell proliferation as % control ([2]; Table 1C, Carboplatin 11 μM): 74 % control
- Cell proliferation as % control ([2]; Table 1C, Carboplatin 33 μM): 45 % control
- Cell proliferation as % control ([2]; Table 1C, Carboplatin 100 μM): 0 % control
- Cell proliferation as % control ([2]; Table 1C, Carboplatin 300 μM): 0 % control
- IC50 ([2]; Table 1D, 3 days (from Table 1C), read-out: IC50): 25 µM

Compound: COc1cc([C@@H]2c3cc4c(cc3[C@@H](O[C@@H]3O[C@@H]5CO[C@@H](C)O[C@H]5[C@H](O)[C@H]3O)[C@H]3COC(=O)[C@H]23)OCO4)cc(OC)c1O [Etoposide]
- IC50 ([2]; Homo sapiens, 72 h, Table 1B, 3 days (from Table 1A), read-out: IC50): < 0.13 µM
- IC50 ([2]; Homo sapiens, 72 h, Table 1D, 3 days (from Table 1C), read-out: IC50): 0.076 µM
- Cell proliferation as % control ([2]; Table 1A, Etoposide 0.13 μM): 37 % control
- Cell proliferation as % control ([2]; Table 1A, Etoposide 0.4 μM): 26 % control
- Cell proliferation as % control ([2]; Table 1A, Etoposide 3.7 μM): 3 % control
- Cell proliferation as % control ([2]; Table 1A, Etoposide 11 μM): 0 % control
- Cell proliferation as % control ([2]; Table 1A, Etoposide 33 μM): 0 % control
- Cell proliferation as % control ([2]; Table 1A, Etoposide 100 μM): 0 % control
- Cell proliferation as % control ([2]; Table 1C, Etoposide 0.004 μM): 97 % control
- Cell proliferation as % control ([2]; Table 1C, Etoposide 0.013 μM): 91 % control
- Cell proliferation as % control ([2]; Table 1C, Etoposide 0.04 μM): 62 % control
- Cell proliferation as % control ([2]; Table 1C, Etoposide 0.37 μM): 35 % control
- Cell proliferation as % control ([2]; Table 1C, Etoposide 1.1 μM): 14 % control
- Cell proliferation as % control ([2]; Table 1C, Etoposide 3.3 μM): 0 % control
- Cell proliferation as % control ([2]; Table 1C, Etoposide 10 μM): 0 % control
